Laboratory results: article PMC5813806 (ACS chemical neuroscience, 2016)
Several values for one entry are separate records, joined by “and”; a condition that tells them apart may be missing. Equal entries are not always repeated. Where two headings read alike, the source gives them in different places.

How the values were obtained:
[1] = target: T1, human D2 receptor (CHO-D2R) (Homo sapiens, UniProt P14416); test: ERK1/2 phosphorylation; type: cell-based; conditions: CHO-D2R cells, 1 μM, 5 min
[2] = target: T1, human D2 receptor (CHO-D2R); test: [3H]methylspiperone binding to CHO-D2R membranes; conditions: 10 μM; for Affinity to D2R, high-affinity state (result in words): CHO-D2R membranes pretreated with GDP and Na+, Mg2+ buffer; for Binding to D2R in binding screening (result in words): CHO-D2R, regular binding buffer
[3] = target: T2, human D3 receptor (CHO-D3R) (Homo sapiens, UniProt P35462); test: ERK1/2 phosphorylation; type: cell-based; conditions: for ERK1/2 phosphorylation, functional screening (result in words): CHO-D3R cells, 5 min
T2 sequence (P35462 whole entry): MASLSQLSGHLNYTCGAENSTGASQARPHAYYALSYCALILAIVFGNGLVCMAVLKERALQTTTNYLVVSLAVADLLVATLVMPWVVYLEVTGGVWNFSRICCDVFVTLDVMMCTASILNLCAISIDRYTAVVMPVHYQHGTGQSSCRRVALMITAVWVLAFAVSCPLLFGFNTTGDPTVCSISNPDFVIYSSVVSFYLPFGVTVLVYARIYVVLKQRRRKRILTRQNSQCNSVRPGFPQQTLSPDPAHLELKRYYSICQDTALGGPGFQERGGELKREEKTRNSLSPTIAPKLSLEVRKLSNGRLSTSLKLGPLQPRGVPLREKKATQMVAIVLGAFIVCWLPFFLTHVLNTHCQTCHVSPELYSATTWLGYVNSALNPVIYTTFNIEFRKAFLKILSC

[4] = target: T2, human D3 receptor (CHO-D3R); test: [3H]methylspiperone binding to CHO-D3R membranes; conditions: for Ki: [3H]methylspiperone competition, two-site analysis
[5] = target: T3, human D4 receptor (HEK-D4R) (Homo sapiens, UniProt P21917); test: [3H]methylspiperone binding screening at HEK-D4R; conditions: 10 μM
T3 sequence (P21917 1-419): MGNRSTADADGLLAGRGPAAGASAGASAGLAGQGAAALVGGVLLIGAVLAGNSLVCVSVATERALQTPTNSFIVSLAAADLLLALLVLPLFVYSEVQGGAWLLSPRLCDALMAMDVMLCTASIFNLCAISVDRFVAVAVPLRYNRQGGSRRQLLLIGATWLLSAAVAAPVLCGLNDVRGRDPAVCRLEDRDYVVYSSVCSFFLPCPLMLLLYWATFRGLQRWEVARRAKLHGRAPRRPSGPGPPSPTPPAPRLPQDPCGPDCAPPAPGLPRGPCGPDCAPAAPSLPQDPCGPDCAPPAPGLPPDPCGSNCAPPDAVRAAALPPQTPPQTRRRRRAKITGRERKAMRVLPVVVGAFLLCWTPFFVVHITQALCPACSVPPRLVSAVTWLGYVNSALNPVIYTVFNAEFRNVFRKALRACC

[6] = target: T1, human D2 receptor (CHO-D2R); test: Agonist-induced [35S]GTPγS binding to CHO-D2R membranes; type: biochemical
[7] = target: hD3R (Homo sapiens, UniProt P35462); test: PathHunter eXpress U2OS D3R β-arrestin-2 recruitment assay; type: cell-based
hD3R, sequence (P35462 whole entry): as the sequence (P35462 whole entry) above

[8] = target: human D3 receptor (HEK-D3R) (Homo sapiens, UniProt P35462); type: cell-based; conditions: 1 μM 30 min pretreatment, washes, 1 μM 2 min
human D3 receptor (HEK-D3R), sequence (P35462 whole entry): as the sequence (P35462 whole entry) above

[9] = target: T2, human D3 receptor (CHO-D3R); test: Agonist-induced [35S]GTPγS binding to CHO-D3R membranes; type: biochemical

T1 sequence (P14416 whole entry): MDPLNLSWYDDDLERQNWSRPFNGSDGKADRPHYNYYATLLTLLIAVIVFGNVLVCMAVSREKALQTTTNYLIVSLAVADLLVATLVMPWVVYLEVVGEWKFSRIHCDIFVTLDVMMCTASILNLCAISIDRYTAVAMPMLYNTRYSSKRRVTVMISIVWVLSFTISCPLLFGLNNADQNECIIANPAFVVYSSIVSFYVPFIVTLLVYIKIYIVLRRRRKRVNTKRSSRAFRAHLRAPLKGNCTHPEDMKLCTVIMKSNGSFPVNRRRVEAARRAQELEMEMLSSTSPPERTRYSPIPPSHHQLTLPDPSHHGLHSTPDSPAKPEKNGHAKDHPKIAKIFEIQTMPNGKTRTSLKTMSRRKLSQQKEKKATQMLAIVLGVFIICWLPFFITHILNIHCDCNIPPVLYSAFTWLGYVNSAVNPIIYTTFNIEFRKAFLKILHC

| SMILES | ERK1/2 phosphorylation, functional screening (result in words) [1] | Affinity to D2R, high-affinity state (result in words) [2] | Binding to D2R in binding screening (result in words) [2] | ERK1/2 phosphorylation, functional screening (result in words) ([3]; 1 μM) | Selectivity to D3R in ERK1/2 activation ([3]; CHO-D3R versus CHO-D2R cells, 1 μM) | ERK1/2 phosphorylation Emax ([3]; CHO-D3R cells treated 5 min at 37 °C, DA = 100) | EC50 ([3]; read-out: ERK1/2 phosphorylation EC50, CHO-D3R cells treated 5 min at 37 °C) | Binding to D3R in binding screening (result in words) ([4]; CHO-D3R, 10 μM) | Ki ([4]; read-out: Ki-H (high-affinity Ki) to CHO-hD3) | Ki ([4]; read-out: Ki-L (low-affinity Ki) to CHO-hD3) | Binding to D4R in binding screening (result in words) [5] | IC50 ([2]; read-out: IC50 for D2R binding, low-affinity state, CHO-D2R in Na+-GTPγS binding buffer) | [35S]GTPγS binding Emax ([6]; D2R, DA effect defined as 100%) | EC50 ([6]; read-out: [35S]GTPγS binding EC50, D2R (CHO-D2R membranes)) | β-arrestin recruitment Emax ([7]; perhaps underestimates from incomplete curves) | EC50 ([7]; read-out: β-arrestin recruitment EC50, 90 min stimulation) | Desensitization of D3R/ERK1/2 signaling on repeated treatment [8] | [35S]GTPγS binding Emax ([9]; DA effect defined as 100%) | EC50 ([9]; read-out: [35S]GTPγS binding EC50) |
| --- | --- | --- | --- | --- | --- | --- | --- | --- | --- | --- | --- | --- | --- | --- | --- | --- | --- | --- | --- |
| NCCc1ccc(O)c(O)c1 [DA, dopamine] | significantly evoked ERK1/2 phosphorylation | higher affinity for D2R than in the regular binding buffer | high binding affinity | – | – | – | – | – | – | – | – | – | – | – | – | – | – | – | – |
| CC(N)CCc1ccco1 (centres unmarked) [SK603, 4-(fluran-2-yl)butan-2-amine] | – | – | – | reduction in functional effect | maintained selectivity to D3R | – | – | – | – | – | – | – | – | – | – | – | – | – | – |
| CCCN1CCO[C@@H]2c3cc(O)ccc3OC[C@H]21 [PD128907] | significantly evoked ERK1/2 phosphorylation | higher affinity for D2R than in the regular binding buffer | high binding affinity | significantly activated ERK1/2 phosphorylation | – | 100 | 7.1 ± 0.5 nM | high binding affinity | 3.7 ± 1.6 nM | 14.6 ± 3.6 nM | high binding affinity | > 10 µM | 92.8 ± 1.7 % of DA | 103 ± 29.6 nM | 100 % of PD128907 | 5.5 ± 0.18 nM | significant reduction of ERK1/2 phosphorylation signal | 95.1 ± 2.1 % of DA | 1.19 nM and 1.2 nM |
